Measurements taken from patent US9062041B2 (Bayer Intellectual Property GmbH, priority 2011, dated 2015).

How the values were obtained:
Format in all cases: cell-based
human PGD receptor = target: T1, human PGD receptor (Homo sapiens, UniProt Q13258); assay: cAMP antagonism test on the human prostaglandin D receptor (HTRF cAMP detection); conditions: selectivity towards hDP, IC50 measured by cAMP antagonism test
T1 sequence (Q13258 1-359): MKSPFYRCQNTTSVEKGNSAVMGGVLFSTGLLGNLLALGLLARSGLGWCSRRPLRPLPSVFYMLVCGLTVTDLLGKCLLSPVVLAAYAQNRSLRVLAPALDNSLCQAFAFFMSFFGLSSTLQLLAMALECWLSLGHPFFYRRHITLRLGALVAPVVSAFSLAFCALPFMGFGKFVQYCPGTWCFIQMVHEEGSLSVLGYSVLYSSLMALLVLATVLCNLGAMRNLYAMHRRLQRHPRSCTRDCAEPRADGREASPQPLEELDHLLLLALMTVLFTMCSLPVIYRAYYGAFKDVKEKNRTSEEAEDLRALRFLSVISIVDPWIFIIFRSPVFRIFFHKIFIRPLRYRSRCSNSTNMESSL
How it was run: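 Cells pre-mixed with cAMP-d2 were preincubated with compound (0.8 nM–16.5 μM) for 20 min at RT, then stimulated with 3× PGD2 solution (6 nM, in PBS-IBMX) for 30 min at RT. After lysis (20 min), HTRF read at 665/620 nm; antagonism seen as rise in FRET ratio.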

[1] = target: EP2 subtype of the human PGE2 receptor (Homo sapiens, UniProt P43116); assay: cAMP antagonism test on the human EP2 receptor (HTRF cAMP detection); conditions: hEP2 receptor, read-out: Antagonism hEP2 IC50
Chain of EP2 subtype of the human PGE2 receptor (P43116 whole entry): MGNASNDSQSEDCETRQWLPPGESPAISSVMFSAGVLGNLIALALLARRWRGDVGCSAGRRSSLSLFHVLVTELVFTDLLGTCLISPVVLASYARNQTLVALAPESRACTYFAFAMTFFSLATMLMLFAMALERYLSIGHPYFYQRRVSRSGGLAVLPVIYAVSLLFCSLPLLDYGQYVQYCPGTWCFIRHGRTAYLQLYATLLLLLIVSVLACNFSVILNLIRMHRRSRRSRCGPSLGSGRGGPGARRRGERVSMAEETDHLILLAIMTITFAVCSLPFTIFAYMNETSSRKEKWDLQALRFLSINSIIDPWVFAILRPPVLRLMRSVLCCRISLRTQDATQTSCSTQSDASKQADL
How it was run: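 Cells expressing human EP2 preincubated 20 min at RT with compound (0.8 nM–16.5 μM), then stimulated 60 min with PGE2 (3× solution 1.5 nM) in PBS-IBMX. After 20 min lysis, cAMP measured by competitive HTRF with cAMP-d2 and Eu cryptate anti-cAMP antibody (665/620 nm ratio).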

[2] = target: EP4 subtype of the human PGE2 receptor (Homo sapiens, UniProt P35408); assay: cAMP antagonism test on the human EP4 receptor (HTRF cAMP detection); conditions: selectivity towards hEP4, IC50 measured by cAMP antagonism test
Chain of EP4 subtype of the human PGE2 receptor (P35408 whole entry): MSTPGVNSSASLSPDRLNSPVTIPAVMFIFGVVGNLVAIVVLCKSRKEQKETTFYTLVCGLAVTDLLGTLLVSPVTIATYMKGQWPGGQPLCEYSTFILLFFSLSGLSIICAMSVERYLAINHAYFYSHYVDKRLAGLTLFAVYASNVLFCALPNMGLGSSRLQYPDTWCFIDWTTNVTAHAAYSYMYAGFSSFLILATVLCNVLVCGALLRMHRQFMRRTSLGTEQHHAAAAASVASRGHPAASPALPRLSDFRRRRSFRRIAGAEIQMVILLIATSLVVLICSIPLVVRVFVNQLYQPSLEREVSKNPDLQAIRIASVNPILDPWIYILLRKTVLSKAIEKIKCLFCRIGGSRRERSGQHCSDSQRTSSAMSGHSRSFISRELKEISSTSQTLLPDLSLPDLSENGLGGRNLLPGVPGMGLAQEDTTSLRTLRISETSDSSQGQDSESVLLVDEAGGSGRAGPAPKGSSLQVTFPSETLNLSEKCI
How it was run: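 Cells expressing human EP4 preincubated 20 min at RT with compound (0.8 nM–16.5 μM), then stimulated with PGE2 (0.3 nM in 3× solution, with IBMX) 60 min at RT. After lysis, cAMP measured by HTRF competition (665/620 nm ratio); antagonism seen as rise in FRET signal.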

| Selectivity hEP2/hDP (human PGD receptor) | IC50 [1] [nM] | Selectivity hEP2/hEP4 [2] | Structure (SMILES) |
| --- | --- | --- | --- |
| xxx (xxx > 100) | 8.09 | xxx (xxx > 100) | COCCNC(=O)c1ccc2nn(CC3CCN(C(=O)c4ccc(C5CC5)cc4)CC3)cc2c1OC(F)F [Example 228, 2-{[1-(4-cyclopropylbenzoyl)piperidin-4-yl]methyl}-4-(difluoromethoxy)-N-(2-methoxyethyl)-2H-indazol-5-carboxamide] |
| xxx (xxx > 100) | 10.2 | xxx (xxx > 100) | O=C(NCCOCC1CC1)c1ccc2nn(CC3CCN(C(=O)c4ccc(Cl)cc4)CC3)cc2c1OC(F)F [Example 229, 2-{[1-(4-chlorobenzoyl)piperidin-4-yl]methyl}-N-[2-(cyclopropylmethoxy)-ethyl]-4-(difluoromethoxy)-2H-indazol-5-carboxamide] |
| xxx (xxx > 100) | 13.7 | xxx (xxx > 100) | O=C(NCCOCC1CC1)c1ccc2nn(CC3CCN(C(=O)c4ccc(Oc5ccc(F)cc5)cc4)CC3)cc2c1OC(F)F [Example 230, N-[2-(cyclopropylmethoxy)ethyl]-4-(difluoromethoxy)-2-({1-[4-(4-fluoro-phenoxy)benzoyl]piperidin-4-yl}methyl)-2H-indazol-5-carboxamide] |
| xxx (xxx > 100) | 13.2 | xxx (xxx > 100) | O=C(NCCOCC1CC1)c1ccc2nn(CC3CCN(C(=O)c4ccc(-c5ccc(F)cc5)cc4)CC3)cc2c1OC(F)F [Example 231, N-[2-(cyclopropylmethoxy)ethyl]-4-(difluoromethoxy)-2-({1-[(4′-fluorobiphenyl-4-yl)carbonyl]piperidin-4-yl}methyl)-2H-indazol-5-carboxamide] |
| xxx (xxx > 100) | 38.3 | xxx (xxx > 100) | COCCNC(=O)c1ccc2nn(CC3CCN(C(=O)c4ccc(Cl)cc4)CC3)cc2c1OCC(F)(F)F [Example 232, 2-{[1-(4-chlorobenzoyl)piperidin-4-yl]methyl}-N-(2-methoxyethyl)-4-(2,2,2-trifluoroethoxy)-2H-indazol-5-carboxamide] |
| xxx (xxx > 100) | 39.7 | xxx (xxx > 100) | COCCNC(=O)c1ccc2nn(CC3CCN(C(=O)c4ccc(Oc5ccc(F)cc5)cc4)CC3)cc2c1OCC(F)(F)F [Example 233, 2-({1-[4-(4-fluorophenoxy)benzoyl]piperidin-4-yl}methyl)-N-(2-methoxyethyl)-4-(2,2,2-trifluoroethoxy)-2H-indazol-5-carboxamide] |
| xxx (xxx > 100) | 47.7 | xxx (xxx > 100) | COCCNC(=O)c1ccc2nn(CC3CCN(C(=O)c4ccc(-c5ccc(F)cc5)cc4)CC3)cc2c1OCC(F)(F)F [Example 234, 2-({1-[(4′-fluorobiphenyl-4-yl)carbonyl]piperidin-4-yl}methyl)-N-(2-methoxy-ethyl)-4-(2,2,2-trifluoroethoxy)-2H-indazol-5-carboxamide] |
| xxx (xxx > 100) | 16.7 | xxx (xxx > 100) | O=C(NCCOCC1CC1)c1ccc2nn(CC3CCN(C(=O)c4ccc(Cl)cc4)CC3)cc2c1OCC(F)(F)F [Example 235, 2-{[1-(4-chlorobenzoyl)piperidin-4-yl]methyl}-N-[2-(cyclopropylmethoxy)-ethyl]-4-(2,2,2-trifluoroethoxy)-2H-indazol-5-carboxamide] |
| xxx (xxx > 100) | 57.5 | xxx (xxx > 100) | O=C(NCCOCC1CC1)c1ccc2nn(CC3CCN(C(=O)c4ccc(Oc5ccc(F)cc5)cc4)CC3)cc2c1OCC(F)(F)F [Example 236, N-[2-(cyclopropylmethoxy)ethyl]-2-({1-[4-(4-fluorophenoxy)benzoyl]piperidin-4-yl}methyl)-4-(2,2,2-trifluoroethoxy)-2H-indazol-5-carboxamide] |
| xxx (xxx > 100) | 31 | xxx (xxx > 100) | O=C(NCCOCC1CC1)c1ccc2nn(CC3CCN(C(=O)c4ccc(-c5ccc(F)cc5)cc4)CC3)cc2c1OCC(F)(F)F [Example 237, N-[2-(cyclopropylmethoxy)ethyl]-2-({1-[(4′-fluorobiphenyl-4-yl)carbonyl]piperidin-4-yl}methyl)-4-(2,2,2-trifluoroethoxy)-2H-indazol-5-carboxamide] |
| xxx (xxx > 100) | 32.4 | xxx (xxx > 100) | COC1CN(CCNC(=O)c2ccc3nn(CC4CCN(C(=O)c5ccc(Cl)cc5)CC4)cc3c2C)C1 [Example 238, 2-{[1-(4-chlorobenzoyl)piperidin-4-yl]methyl}-N-[2-(3-methoxyazetidin-1-yl)ethyl]-4-methyl-2H-indazol-5-carboxamide] |
| xx (xx: 10-100) | 305 | xx (xx: 10-100) | CCNC(=O)c1ccc2nn(CC3CCN(C(=O)c4ccc(Cl)cc4)CC3)cc2c1C [Example 242, 2-{[1-(4-chlorobenzoyl)piperidin-4-yl]methyl}-N-ethyl-4-methyl-2H-indazol-5-carboxamide] |
| xx (xx: 10-100) | 335 | xx (xx: 10-100) | Cc1c(C(=O)NCC(C)C)ccc2nn(CC3CCN(C(=O)c4ccc(Cl)cc4)CC3)cc12 [Example 243, 2-{[1-(4-chlorobenzoyl)piperidin-4-yl]methyl}-N-isobutyl-4-methyl-2H-indazol-5-carboxamide] |
| xxx (xxx > 100) | 44.2 | xxx (xxx > 100) | Cc1c(C(=O)NCCS(C)(=O)=O)ccc2nn(CC3CCN(C(=O)c4ccc(Cl)cc4)CC3)cc12 [Example 244, 2-{[1-(4-chlorobenzoyl)piperidin-4-yl]methyl}-N-(2-mesylethyl)-4-methyl-2H-indazol-5-carboxamide] |
| xxx (xxx > 100) | 7.79 | xxx (xxx > 100) | Cc1c(C(=O)NCCS(C)(=O)=O)ccc2nn(CC3CCN(C(=O)c4ccc(Oc5ccc(C(F)(F)F)cc5)cc4)CC3)cc12 [Example 245, N-(2-mesylethyl)-4-methyl-2-[(1-{4-[4-(trifluoromethyl)phenoxy]benzoyl}-piperidin-4-yl)methyl]-2H-indazol-5-carboxamide] |
| xxx (xxx > 100) | 9.23 | xxx (xxx > 100) | Cc1c(C(=O)NCCC#N)ccc2nn(CC3CCN(C(=O)c4ccc(Oc5ccc(C(F)(F)F)cc5)cc4)CC3)cc12 [Example 246, N-(2-cyanoethyl)-4-methyl-2-[(1-{4-[4-(trifluoromethyl)phenoxy]benzoyl}piperidin-4-yl)methyl]-2H-indazol-5-carboxamide] |
| xxx (xxx > 100) | 12.6 | xxx (xxx > 100) | Cc1c(C(=O)NCC#N)ccc2nn(CC3CCN(C(=O)c4ccc(Oc5ccc(C(F)(F)F)cc5)cc4)CC3)cc12 [Example 247, N-(cyanomethyl)-4-methyl-2-[(1-{4-[4-(trifluoromethyl)phenoxy]benzoyl}piperidin-4-yl)methyl]-2H-indazol-5-carboxamide] |
